Values quoted from earlier work, collected in patent publication US20070098804A1, “Solid particulate tadalafil having a bimodal particle size distribution” (priority 2005, published 2007).

Conditions: crystalline solid, reported in the PDR

Structure (SMILES): CN1CC(=O)N2[C@H](c3ccc4c(c3)OCO4)c3[nH]c4ccccc4c3C[C@@H]2C1=O [Tadalafil]
- solubility in water: practically insoluble in water
